Values of other authors, collected in PMC7033111, “Rational design of novel benzisoxazole derivatives with acetylcholinesterase inhibitory and serotoninergic 5-HT4 receptors activities for the treatment of Alzheimer’s disease” (Scientific Reports, 2020).

How the values were obtained:
[1] = target: h5-HT4eR; details: donecopride reference value; read-out: 5-HT4R Ki; cited from earlier work
[2] = tested on: 5-HT4R; details: cited from earlier work
[3] = parameters: method as in PMID 25157130; details: mice; cited from earlier work
[4] = tested on: hAChE; parameters: method as in PMID 25157130; details: donecopride reference value; cited from earlier work

## COc1cc(N)c(Cl)cc1C(=O)CCC1CCN(CC2CCCCC2)CC1 [donecopride]
[1]
  Ki: 8.5 ± 0.3 nM
[2]
  % of control agonist response (5-HT4R): 48%
[3]
  in vivo effects, object recognition test: improvement of memory performances
[4]
  IC50: 16 ± 5 nM
